What was measured:
[1] = system: human monocytic cell line THP-1; test: Cytokine production by THP-1 cells after peptide stimulation; format: cell-based; conditions: for Cytokine production IL-1β / Cytokine production IL-8 / Cytokine production TNF-α: culture supernatant after 18 hours with peptide
Experimental: (§1) For the assay, the human cells used were cultured at 1 million cells/ml in 96-well plates with the peptides in complete RPMI medium with 5% FBS. After culture for 18 hours at 37° C. and 5% CO2, the culture supernatants were measured for the cytokines generated by the cells with an Upstate multiplex cytokine kit.

[2] = system: primary human peripheral blood mononuclear cells (hPBMC); test: Cytokine production by primary hPBMC after peptide stimulation; format: cell-based
Experimental: The possible combinations of sequences included PDCGLR, PDCGLK, PDCGMR, and PDCGMK. […] Therefore, the specific peptide sequence PDCGLR, which was identified as a bacterial signature found commonly in bacterial proteins but not in Drosophila, is recognised by the human immune system as a PAMP.
as §1

cells in vitro = conditions: cited from earlier work
[3] = hPBMC #1643, culture supernatant after 18 hours with peptide

Row | Substance | Adjuvant activity, as measured by the specific production of cytokines (IL1-β, IL-8 and TNFα) [1] | Cytokine production IL-1β [1] [pg/mL] | Cytokine production IL-8 [1] [pg/mL] | Cytokine production TNF-α [1] [pg/mL] | Cytokine production (IL-6 and TNFα) ([2]; hPBMC) | Cytokine production IL-6 [2, 3] [pg/mL] | Cytokine production TNF-α [2, 3] [pg/mL] | Induction of cytokine production from cells in vitro (cells in vitro)
1 | PDCGLR | adjuvant activity was observed | 11.32 | 171.11 | 4.42 | cytokine production (IL-6 and TNFα) was also demonstrated | 31.42 | 3.6 | –
2 | ALTTE [5-mer peptide from a bacterial fimbriae protein] | – | – | – | – | – | – | – | shown to induce cytokine production from cells in vitro
3 | PDCGMR | – | 1.61 | 25.71 | <1 | – | – | – | –
4 | PDCGLK | – | 1.33 | 24.29 | <1 | – | – | – | –
5 | PDCGMK | – | 1.59 | 19.28 | <1 | – | – | – | –

Source: patent US8165823B2, “Pamps, pathogen associated molecular patterns” (Novartis AG, priority 2005, dated 2012)
